The source of these data is patent publication US12522607B2, “Substituted pyrazolo[3,4-d]pyrimidines as wee-1 inhibitors” (WIGEN BIOMEDICINE TECHNOLOGY (SHANGHAI) CO., LTD., priority 2020, dated 2026).

By IC50 is commonly meant the concentration at which inhibition is half-maximal.

In one experiment the test system is HT29 cells. The experiment in a line: Antiproliferative activity against HT29 cells (Cell Titer-Lumi, ATP content). The experiment is classed as cell-based. As to conditions: Homo sapiens, HT-29, 72 after compound addition, read-out: HT-29 cells Anti-proliferative activity (IC50 for the inhibition against HT-29 cell growth). The protocol: Example 343. Assay for Antiproliferative Activity Against HT29 Cells
3000 HT29 cells were seed in a 384-well plate (Fisher 142762). After the cells adhered to the wall overnight, the compounds diluted in a gradient were added. 72 later, Cell Titer-Lumi (Beyotime C0068XL) was added to determine the content of ATP in the cells. The growth of the cells was evaluated, and the IC50 for the inhibition of the compounds against cell growth was calculated.

Another experiment addresses T1, Wee-1 kinase (Homo sapiens, UniProt P30291).
T1 construct: purchased Invitrogen
The experiment in a line: Inhibitory activity against Wee-1 kinase (Lanthra Screen Wee-1 kinase kit, Tracer 178). Format: binding. As to conditions: Wee-1 kinase 5 nM, Tracer 178 50 nM, 1 h room temperature. How it is done: Example 342. Assay for Inhibitory Activity of Compounds Against Wee-1 Kinase
The inhibitory activity of compounds against Wee-1 kinase was determined by using the Lanthra Screen Wee-1 kinase kit (Invitrogen). 5 μL of the compound diluted in a gradient with DMSO, 5 μL. of Wee-1 kinase (at a final concentration of 5 nM), 5 μL of an Eu-Anti-GST antibody (at a final concentration of 2 nM) mixture and 5 μL of kinase Tracer 178 (at a final concentration of 50 nM) were mixed well. The plate was read after incubation at room temperature for one hour. For comparison with the DMSO solvent control group, IC50 for the inhibition activity of the compounds against Wee-1 kinase was calculated.

T1 sequence (P30291 whole entry): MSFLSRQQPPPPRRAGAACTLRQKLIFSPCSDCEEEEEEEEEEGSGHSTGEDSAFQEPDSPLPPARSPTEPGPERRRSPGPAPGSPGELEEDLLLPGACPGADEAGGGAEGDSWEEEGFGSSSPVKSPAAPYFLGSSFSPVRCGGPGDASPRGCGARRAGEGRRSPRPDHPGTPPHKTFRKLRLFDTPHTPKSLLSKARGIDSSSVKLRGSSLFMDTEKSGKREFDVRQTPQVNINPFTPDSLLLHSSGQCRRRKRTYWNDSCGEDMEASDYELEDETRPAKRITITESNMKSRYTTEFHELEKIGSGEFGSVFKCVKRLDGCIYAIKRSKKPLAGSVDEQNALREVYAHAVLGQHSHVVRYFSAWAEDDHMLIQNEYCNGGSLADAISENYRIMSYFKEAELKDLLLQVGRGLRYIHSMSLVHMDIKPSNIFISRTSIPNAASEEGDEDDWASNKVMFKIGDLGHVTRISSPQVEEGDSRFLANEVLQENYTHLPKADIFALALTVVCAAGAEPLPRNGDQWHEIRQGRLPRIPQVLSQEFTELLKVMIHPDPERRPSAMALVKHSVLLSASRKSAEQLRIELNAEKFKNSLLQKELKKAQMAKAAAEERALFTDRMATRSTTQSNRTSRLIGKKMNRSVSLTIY

Take `CCn1c(=O)c2cnc(Nc3ccc4c(c3)CN(C)CC43CC3)nc2n1-c1ccc(=O)n(C(C)(C)C)n1` [Compound 287]: the figures for the IC50 in the experiment on HT29 cells and on Wee-1 kinase were no more than 1000 nM and no more than 30 nM, respectively.
As for `C=CCn1c(=O)c2cnc(Nc3ccc4c(c3)CNCC4(C)C)nc2n1-c1ccc(=O)n(C(C)C)n1` [Compound 237], the IC50 in the experiment on HT29 cells was no more than 1000 nM; against Wee-1 kinase, no more than 30 nM.
The like results for `C=CCn1c(=O)c2cnc(Nc3ccc(N4CCN[C@H](C)C4)cc3)nc2n1-c1ccc(=O)n(C(C)C)n1` [Compound 131] were, in that order, no more than 1000 nM and no more than 30 nM.
In the same order, the values of `C=CCn1c(=O)c2cnc(Nc3cc(N4CCN(C)CC4)c4ccn(C)c4c3)nc2n1-c1ccc(=O)n(C(C)C)n1` [Compound 255] are no more than 1000 nM and no more than 30 nM.
The like results for `C=CCn1c(=O)c2cnc(Nc3ccc(N4CCN(C)CC4)cc3)nc2n1-c1ccc(=O)n(CC(C)(C)C)n1` [Compound 6] were, in that order, 1000 to 3000 nM and 30 to 100 nM.
With `Cc1cc(Nc2ncc3c(=O)n(C4CC4)n(-c4cc(F)c(=O)n(C(C)C)c4)c3n2)ccc1N1CCN(C)CC1` [Compound 324], the values for the IC50 with HT29 cells and against Wee-1 kinase were no more than 1000 nM and no more than 30 nM, respectively.
In the same order, the values of `C=CCn1c(=O)c2cnc(Nc3ccc(N4CCC(C)(NC)CC4)cc3)nc2n1-c1ccc(=O)n(C(C)C)n1` [Compound 110] are no more than 1000 nM and no more than 30 nM.
In the same order, the values of `C=CCn1c(=O)c2cnc(Nc3cc(Cl)cc(C4CCNCC4)c3)nc2n1-c1ccc(=O)n(C(C)C)n1` [Compound 210] are no more than 1000 nM and no more than 30 nM.
In the same order, the values of `CC(C)n1cc(-n2c3nc(Nc4ccc(N5CCN(C)CC5)cc4)ncc3c(=O)n2C(C)C)cc(F)c1=O` [Compound 319] are no more than 1000 nM and no more than 30 nM.
Regarding `C=CCn1c(=O)c2cnc(Nc3ccc(N4CCN(C)CC4)c(CC(F)(F)F)c3)nc2n1-c1ccc(=O)n(C(C)C)n1` [Compound 54], the results for the IC50 in the experiment on HT29 cells and against Wee-1 kinase were no more than 1000 nM and no more than 30 nM, respectively.
The like results for `C=CCn1c(=O)c2cnc(Nc3ccc(N4CCC(C)(N(C)C)CC4)c(OC)c3)nc2n1-c1ccc(=O)n(C(C)C)n1` [Compound 115] were, in that order, no more than 1000 nM and no more than 30 nM.
Take `C=CCn1c(=O)c2cnc(Nc3ccc(N4CCN(C)CC4)cc3)nc2n1-c1ccc(=O)n(C(C)(C)C(F)(F)F)n1` [Compound 10]: the values for the IC50 in the experiment with HT29 cells and on Wee-1 kinase were no more than 1000 nM and no more than 30 nM, respectively.
In the same order, the values of `C=CCn1c(=O)c2cnc(Nc3ccc4c(c3)CN(C)CC4(F)F)nc2n1-c1ccc(=O)n(C(C)C)n1` [Compound 241] are no more than 1000 nM and no more than 30 nM.
In the same order, the values of `CN1Cc2cc(Nc3ncc4c(=O)n(C5CC5)n(-c5ccc(=O)n(C(C)(C)C)c5)c4n3)ccc2C2(CC2)C1` [Compound 341] are no more than 1000 nM and no more than 30 nM.
The like results for `C=CCn1c(=O)c2cnc(Nc3ccc(N4CCC(C)(N(C)C)CC4)cc3)nc2n1-c1ccc(=O)n(C(C)C)n1` [Compound 113] were, in that order, no more than 1000 nM and no more than 30 nM.
For the compound `C=CCn1c(=O)c2cnc(Nc3ccc4c(N5CCN(C(C)C)CC5)cn(C)c4c3)nc2n1-c1ccc(=O)n(C(C)C)n1` [Compound 265], the IC50 in the experiment on HT29 cells is no more than 1000 nM; against Wee-1 kinase, no more than 30 nM.
The like results for `C=CCn1c(=O)c2cnc(Nc3ccc4c(c3)C3(CC3)CNC4)nc2n1-c1ccc(=O)n(C(C)C)n1` [Compound 234] were, in that order, no more than 1000 nM and no more than 30 nM.
The like results for `C=CCn1c(=O)c2cnc(Nc3ccc(N4CCN(C5CCN(C)CC5)CC4)c(OC)c3)nc2n1-c1ccc(=O)n(C(C)C)n1` [Compound 141] were, in that order, no more than 1000 nM and no more than 30 nM.
In the same order, the values of `C=CCn1c(=O)c2cnc(Nc3cc(C)cc(N4CCNCC4)c3)nc2n1-c1ccc(=O)n(C(C)C)n1` [Compound 69] are no more than 1000 nM and no more than 30 nM.
For the compound `C=CCn1c(=O)c2cnc(Nc3ccc4c(c3)CN(C)CC43CC3)nc2n1-c1ccc(=O)n(C(C)(C)C)n1` [Compound 283], the IC50 in the experiment with HT29 cells is no more than 1000 nM; against Wee-1 kinase it was no more than 30 nM.
In the same order, the values of `C=CCn1c(=O)c2cnc(Nc3ccc(N4CCC(N5CCCCC5)CC4)cc3)nc2n1-c1ccc(=O)n(C(C)C)n1` [Compound 145] are no more than 1000 nM and no more than 30 nM.
In the same order, the values of `C=CCn1c(=O)c2cnc(Nc3ccc(N4CC5(CNC5)C4)c(C)c3)nc2n1-c1ccc(=O)n(C(C)C)n1` [Compound 155] are no more than 1000 nM and no more than 30 nM.
In the same order, the values of `C=CCn1c(=O)c2cnc(Nc3ccc4c(c3)CNCC4)nc2n1-c1ccc(=O)n(C(C)C)n1` [Compound 225] are no more than 1000 nM and no more than 30 nM.
For `C=CCn1c(=O)c2cnc(Nc3cc(N4CCN(C(C)C)CC4)c4ccn(C)c4c3)nc2n1-c1ccc(=O)n(C(C)C)n1` [Compound 256], the values for the IC50 with HT29 cells and against Wee-1 kinase were no more than 1000 nM and no more than 30 nM, respectively.
Consider `C=CCn1c(=O)c2cnc(Nc3ccc4c(c3)CN(C)CC4)nc2n1-c1ccc(=O)n(C(C)C)n1` [Compound 226], for which the IC50 in the experiment on HT29 cells is no more than 1000 nM; against Wee-1 kinase, no more than 30 nM.
The like results for `C=CCn1c(=O)c2cnc(Nc3ccc(N4CCN(C)CC4)cc3)nc2n1-c1ccc(=O)n(C2COC2)n1` [Compound 14] were, in that order, greater than 3000 nM and 30 to 100 nM.
For the compound `Cc1cc(Nc2ncc3c(=O)n(C4CC4)n(-c4ccc(=O)n(C(C)C)n4)c3n2)ccc1N1CCN(C)CC1` [Compound 272], the results for the IC50 in the experiment with HT29 cells and on Wee-1 kinase were no more than 1000 nM and no more than 30 nM, respectively.
Consider `C=CCn1c(=O)c2cnc(Nc3cc(OC)cc(C4CCNCC4)c3)nc2n1-c1ccc(=O)n(C(C)C)n1` [Compound 212], for which the IC50 in the experiment with HT29 cells is no more than 1000 nM; on Wee-1 kinase, no more than 30 nM.
The like results for `C=CCn1c(=O)c2cnc(Nc3ccc(N4CCN(C)CC4)nc3)nc2n1-c1ccc(=O)n(C(C)C)n1` [Compound 247] were, in that order, no more than 1000 nM and no more than 30 nM.
For the compound `C=CCn1c(=O)c2cnc(Nc3ccc(N4CCN(C)[C@H](C)C4)c(C)c3)nc2n1-c1ccc(=O)n(C(C)C)n1` [Compound 134], the half-maximal inhibitory concentration (IC50) in the experiment on HT29 cells is no more than 1000 nM; against Wee-1 kinase it was no more than 30 nM.
The like results for `C=CCn1c(=O)c2cnc(Nc3ccc(N4CCNCC4)c(CC(F)(F)F)c3)nc2n1-c1ccc(=O)n(C(C)C)n1` [Compound 53] were, in that order, no more than 1000 nM and no more than 30 nM.
In the same order, the values of `C=CCn1c(=O)c2cnc(Nc3ccc(N4CCC(N5CCOCC5)CC4)cc3)nc2n1-c1ccc(=O)n(C(C)C)n1` [Compound 148] are no more than 1000 nM and no more than 30 nM.
Consider `C=CCn1c(=O)c2cnc(Nc3cc(Cl)cc(C4CCN(C)CC4)c3)nc2n1-c1ccc(=O)n(C(C)C)n1` [Compound 211], for which the IC50 with HT29 cells is no more than 1000 nM; against Wee-1 kinase, no more than 30 nM.
The like results for `C=CCn1c(=O)c2cnc(Nc3ccc(N4CCC5(CC4)CNC5)cc3)nc2n1-c1ccc(=O)n(C(C)C)n1` [Compound 175] were, in that order, 1000 to 3000 nM and no more than 30 nM.
In the same order, the values of `C=CCn1c(=O)c2cnc(Nc3ccc(N4CC5(CCNCC5)C4)c(C)c3)nc2n1-c1ccc(=O)n(C(C)C)n1` [Compound 167] are 1000 to 3000 nM and 30 to 100 nM.
The like results for `C=CCn1c(=O)c2cnc(Nc3ccc(N4CCN[C@@H](C)C4)c(C)c3)nc2n1-c1ccc(=O)n(C(C)C)n1` [Compound 130] were, in that order, no more than 1000 nM and no more than 30 nM.
For `C=CCn1c(=O)c2cnc(Nc3ccc(N4CCN(C)CC4)cc3)nc2n1-c1ccc(=O)n(C(C)(C)C)c1` [Compound 21], the results for the IC50 in the experiment with HT29 cells and against Wee-1 kinase were no more than 1000 nM and no more than 30 nM, respectively.
In the same order, the values of `C=CCn1c(=O)c2cnc(Nc3ccc(N4CC5CCC(C4)N5)cc3)nc2n1-c1ccc(=O)n(C(C)C)n1` [Compound 135] are 1000 to 3000 nM and 30 to 100 nM.
In the case of `C=CCn1c(=O)c2cnc(Nc3ccc(N4CCC5(CC4)CNC5)c(OC)c3)nc2n1-c1ccc(=O)n(C(C)C)n1` [Compound 177], the figures for the IC50 in the experiment on HT29 cells and against Wee-1 kinase were no more than 1000 nM and no more than 30 nM, respectively.
In the same order, the values of `C=CCn1c(=O)c2cnc(Nc3ccc(N4CCN(C5CCN(C)CC5)CC4)c(F)c3)nc2n1-c1ccc(=O)n(C(C)C)n1` [Compound 140] are no more than 1000 nM and no more than 30 nM.
In the same order, the values of `C=CCn1c(=O)c2cnc(Nc3cc(C)cc(C4CCN(C)CC4)c3)nc2n1-c1ccc(=O)n(C(C)C)n1` [Compound 207] are no more than 1000 nM and no more than 30 nM.
In the case of `C=CCn1c(=O)c2cnc(Nc3ccc4c(N5CCN(C)CC5)cn(C)c4c3)nc2n1-c1ccc(=O)n(C(C)C)n1` [Compound 264], the IC50 in the experiment on HT29 cells is no more than 1000 nM; on Wee-1 kinase it was no more than 30 nM.
The like results for `C=CCn1c(=O)c2cnc(Nc3ccc4c(c3)CC(N(C)C)C4)nc2n1-c1ccc(=O)n(C(C)C)n1` (stereo not drawn) [Compound 220] were, in that order, no more than 1000 nM and no more than 30 nM.
The like results for `C=CCn1c(=O)c2cnc(Nc3ccc(N4CCC(NC)CC4)cc3)nc2n1-c1ccc(=O)n(C(C)C)n1` [Compound 104] were, in that order, no more than 1000 nM and no more than 30 nM.
The like results for `C=CCn1c(=O)c2cnc(Nc3ccc(C4(C)CCCNC4)cc3)nc2n1-c1ccc(=O)n(C(C)C)n1` (stereo not drawn) [Compound 202] were, in that order, no more than 1000 nM and no more than 30 nM.
